In PMC11808136, “Screening and identification of host signaling pathways for alleviating influenza-induced production of pro-inflammatory cytokines, IP-10, IL-8, and MCP-1, using a U937 cell-based influenza model” (Frontiers in Microbiology, 2025):
Like-named read-outs stand apart in the source and are kept apart here.

Experiments:
[1] = tested on: IP-10 production in influenza virus-infected U937 cells (H3N2); assay: cells; assay type: cell-based, Human
[2] = tested on: phosphorylation of p38 (p-p38); assay: Western blot of phosphorylated p38 in influenza-infected U937 cells; assay type: cell-based, Human; conditions: for phosphorylation of p38: 24 h post-infection, western blot, cellular model; for IC50: Homo sapiens, U-937, read-out: IC50 p-p38
Protocol: (§1) Figure 6 TKIs repress cytokine production by suppressing the p38 pathway. […] Cells were lysed 24 h post-infection, and the levels of phosphorylated p38 and ERK (p-p38 and p-ERK) and total p38 and ERK were assessed by western blot. A quantification of phosphorylated p38 levels for each drug treatment was included in the right panel of each figure.
(§2) Cells were homogenized in RIPA lysis buffer containing a 1% protease inhibitor cocktail (Roche) to extract total protein. Equal amounts of protein homogenates were separated by SDS-PAGE (Bio-Rad) and transferred onto polyvinylidene difluoride membranes (pore size […]; Bio-Rad). The membranes were then blotted with monoclonal antibodies against GAPDH (1:1000, ZSGB-BIO), p38, phosphor-p38, ERK, phospho-ERK, STAT1, phosphor-STAT1 (1:1000; Cell Signaling Technology), STAT3, and phosphor-STAT3 (1:1000; Cell Signaling Technology), respectively. Protein levels were detected with horseradish peroxidase-tagged secondary antibodies and enhanced chemiluminescence western blot reagents (Advansta), followed by visualization using an enhanced chemiluminescence system (AlphaEase FluorChem System, Alpha Innotech Corp.). Bands were quantified using ImageJ (Ver. 1.46; NIH, Bethesda, MD).

[3] = target: T1, JAK2 (Homo sapiens, UniProt O60674); assay: Cell-free kinase activity assay, JAK2; assay type: biochemical
T1 construct: purchased KinaseProfiler (Eurofin, Brussels, Belgium)
T1 sequence (O60674 whole entry): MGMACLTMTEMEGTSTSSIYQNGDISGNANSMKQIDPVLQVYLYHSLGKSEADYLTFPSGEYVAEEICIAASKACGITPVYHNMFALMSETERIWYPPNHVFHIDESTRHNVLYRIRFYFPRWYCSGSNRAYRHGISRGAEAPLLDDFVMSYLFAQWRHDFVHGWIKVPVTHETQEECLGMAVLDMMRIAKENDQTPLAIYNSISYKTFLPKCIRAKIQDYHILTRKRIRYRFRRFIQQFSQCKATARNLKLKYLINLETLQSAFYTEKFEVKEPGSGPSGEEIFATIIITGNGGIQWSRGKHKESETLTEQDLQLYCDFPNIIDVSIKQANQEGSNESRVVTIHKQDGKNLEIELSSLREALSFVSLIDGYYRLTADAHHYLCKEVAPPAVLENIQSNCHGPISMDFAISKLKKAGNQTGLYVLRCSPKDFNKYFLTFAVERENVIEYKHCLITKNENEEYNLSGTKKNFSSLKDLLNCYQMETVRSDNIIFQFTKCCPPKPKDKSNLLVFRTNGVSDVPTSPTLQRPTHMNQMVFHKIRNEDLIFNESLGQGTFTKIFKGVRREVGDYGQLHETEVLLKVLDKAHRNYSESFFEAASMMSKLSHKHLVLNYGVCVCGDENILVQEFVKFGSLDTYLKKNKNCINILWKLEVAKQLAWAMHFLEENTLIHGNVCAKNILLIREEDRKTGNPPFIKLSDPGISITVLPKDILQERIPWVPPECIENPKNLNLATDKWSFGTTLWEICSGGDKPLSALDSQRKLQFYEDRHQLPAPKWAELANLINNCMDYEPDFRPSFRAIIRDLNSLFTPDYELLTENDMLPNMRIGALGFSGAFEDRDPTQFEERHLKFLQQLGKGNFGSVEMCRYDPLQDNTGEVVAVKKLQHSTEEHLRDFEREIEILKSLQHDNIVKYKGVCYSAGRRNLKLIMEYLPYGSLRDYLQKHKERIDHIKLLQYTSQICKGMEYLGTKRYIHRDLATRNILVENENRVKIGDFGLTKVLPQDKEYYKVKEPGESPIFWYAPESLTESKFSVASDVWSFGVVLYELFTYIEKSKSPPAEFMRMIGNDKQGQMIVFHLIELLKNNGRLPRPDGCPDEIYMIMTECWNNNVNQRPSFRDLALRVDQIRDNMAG

[4] = tested on: MCP-1 production in influenza virus-infected U937 cells (H3N2); assay: cells; assay type: cell-based, Human
[5] = target: JAK1 (Homo sapiens, UniProt P23458); assay: Cell-free kinase activity assay, JAK1; conditions: for JAK1 activity: cell-free kinase assay
Chain of JAK1 (P23458 whole entry): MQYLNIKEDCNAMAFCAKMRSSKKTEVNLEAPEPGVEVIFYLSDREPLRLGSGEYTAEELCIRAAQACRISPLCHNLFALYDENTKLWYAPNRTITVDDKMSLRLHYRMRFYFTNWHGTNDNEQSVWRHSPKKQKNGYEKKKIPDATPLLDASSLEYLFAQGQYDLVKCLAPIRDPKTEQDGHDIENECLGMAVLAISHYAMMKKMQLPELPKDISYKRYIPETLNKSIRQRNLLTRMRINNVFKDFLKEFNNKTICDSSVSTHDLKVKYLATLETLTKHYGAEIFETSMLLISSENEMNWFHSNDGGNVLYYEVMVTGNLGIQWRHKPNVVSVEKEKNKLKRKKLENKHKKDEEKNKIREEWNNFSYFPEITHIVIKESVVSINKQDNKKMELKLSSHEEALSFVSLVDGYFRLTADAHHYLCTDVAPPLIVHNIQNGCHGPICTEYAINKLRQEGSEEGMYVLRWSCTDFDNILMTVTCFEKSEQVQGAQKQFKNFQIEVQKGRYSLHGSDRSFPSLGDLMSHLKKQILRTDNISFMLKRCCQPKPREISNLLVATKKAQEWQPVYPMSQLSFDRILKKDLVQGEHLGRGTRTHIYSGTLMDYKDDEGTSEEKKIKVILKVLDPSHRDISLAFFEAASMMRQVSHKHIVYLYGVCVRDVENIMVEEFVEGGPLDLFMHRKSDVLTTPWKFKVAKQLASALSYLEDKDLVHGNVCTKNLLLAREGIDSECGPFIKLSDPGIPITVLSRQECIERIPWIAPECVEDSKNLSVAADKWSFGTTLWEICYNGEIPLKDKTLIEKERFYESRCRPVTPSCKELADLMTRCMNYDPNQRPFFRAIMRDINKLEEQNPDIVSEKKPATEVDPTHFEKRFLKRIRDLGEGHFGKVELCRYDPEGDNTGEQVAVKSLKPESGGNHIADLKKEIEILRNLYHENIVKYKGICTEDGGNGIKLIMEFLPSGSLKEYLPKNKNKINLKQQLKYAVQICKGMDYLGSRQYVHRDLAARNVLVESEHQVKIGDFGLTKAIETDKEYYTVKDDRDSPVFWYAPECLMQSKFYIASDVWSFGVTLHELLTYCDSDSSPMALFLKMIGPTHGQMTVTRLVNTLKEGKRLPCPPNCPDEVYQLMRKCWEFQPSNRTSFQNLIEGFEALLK

[6] = tested on: U937 cells; conditions: for maximum non-toxic concentration: human
[7] = tested on: MCP-1 production in influenza virus-infected U937 cells (H1N1); assay: cells; assay type: cell-based
[8] = tested on: MCP-1 production in influenza virus-infected U937 cells (H7N8); assay: cells; assay type: cell-based, Human
[9] = target: p38 (Homo sapiens, UniProt Q16539); assay: Cell-free kinase activity assay, p38; assay type: biochemical; conditions: for p38 kinase activity in vitro: cell-free; for IC50: p38 kinases in vitro
Chain of p38 (Q16539 whole entry): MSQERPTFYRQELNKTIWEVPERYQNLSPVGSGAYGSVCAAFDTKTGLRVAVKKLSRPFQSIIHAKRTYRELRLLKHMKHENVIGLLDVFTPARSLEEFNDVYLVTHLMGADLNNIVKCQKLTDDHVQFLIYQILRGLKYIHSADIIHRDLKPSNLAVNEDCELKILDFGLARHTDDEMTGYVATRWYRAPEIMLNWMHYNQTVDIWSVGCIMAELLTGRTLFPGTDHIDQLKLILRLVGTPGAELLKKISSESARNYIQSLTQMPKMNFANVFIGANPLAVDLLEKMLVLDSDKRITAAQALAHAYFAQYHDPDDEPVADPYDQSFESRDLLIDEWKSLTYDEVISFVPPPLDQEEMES

[10] = tested on: IL-8 production in influenza virus-infected U937 cells (H7N8); assay: cells; assay type: cell-based, Human
[11] = tested on: IP-10 production in influenza virus-infected U937 cells (H1N1); assay: cells; assay type: cell-based
[12] = tested on: IL-8 production in influenza virus-infected U937 cells (H3N2); assay: cells; assay type: cell-based, Human
[13] = tested on: STAT1 phosphorylation (p-STAT1); assay type: cell-based, Human
[14] = in vitro; conditions: human
[15] = tested on: IL-8 production in influenza virus-infected U937 cells (H1N1); assay: cells; assay type: cell-based, Human; conditions: for EC50: read-out: EC50 IL-8
[16] = tested on: IP-10 production in influenza virus-infected U937 cells (H7N8); assay: cells; assay type: cell-based, Human
[17] = tested on: ERK phosphorylation (p-ERK); assay: Western blot of phosphorylated ERK in influenza-infected U937 cells; assay type: cell-based, Human; conditions: 24 h post-infection, western blot
Protocol: Figure 5 Raf/MEK/ERK and p38 signal pathways are involved in the regulation of cytokines in U937 cells. (A–C) Determination of inhibition rates on IL-8, IP-10, and MCP-1 by each compound in the MAPK group and the distribution of targets between subgroups. U937 cells were infected with influenza A/PuertoRico/8/1934 virus (MOI = 0.1) in the presence of 10 μM of each inhibitor and then incubated at 37°C for 48 h. The distribution of the targets of all the inhibitors in the MAPK group was then analyzed and categorized into subgroups. […] The supernatants were harvested 48 h post-infection, and the levels of IL-8, MCP-1, and IP-10 were measured by AlphaLISA. (E) The cells were treated as in (C) except being lysed 24 h post-infection, and the levels of phosphorylated STAT1, p38, ERK (p-STAT1, p-p38, p-ERK), total STAT1, p38, ERK, and viral protein HA were assessed by western blot. (F) A quantitative analysis of the relative levels of the phosphorylated STAT1, p38, ERK (p-STAT1, p-p38, p-ERK) in (E). The data are representative of at least three independent experiments. n.s. no significance; *p < 0.05; **p < 0.01; ***p < 0.001.
as §1
as §2, with “The membranes were then blotted with monoclonal antibodies against GAPDH (1:1000, ZSGB-BIO), p38, phosphor-p38, ERK, phospho-ERK, STAT1, phosphor-STAT1 (1:1000; Cell Signaling Technology), STAT3, and phosphor-STAT3 (1:1000; Cell Signaling Technology), respectively.” left out

[18] = Homo sapiens, U-937, read-out: IC50 MCP-1
[19] = Homo sapiens, U-937, read-out: EC50 MCP-1
[20] = Homo sapiens, U-937, read-out: EC50 IL-8
[21] = Homo sapiens, U-937, read-out: EC50 IP-10
[22] = Homo sapiens, U-937, read-out: IC50 IP-10
[23] = CC50, secondary screen, Supplemental Table 1
[24] = Homo sapiens, U-937, secondary screen, Supplemental Table 1
[25] = U937 cells, Table 1 section H1N1
[26] = Homo sapiens, U-937, secondary screen, Supplemental Table 1; read-out: EC50 MCP-1
[27] = Homo sapiens, U-937, secondary screen, Supplemental Table 1; read-out: EC50 IP-10
[28] = secondary screen, Supplemental Table 1

Cc1cc(Nc2nc(N[C@@H](C)c3ncc(F)cn3)ncc2Cl)n[nH]1 [AZD1480]
EC50 ([1]; Homo sapiens, U-937): 17 nM
phosphorylation of p38 [2]: suppress
IC50 [2]: 5300 nM
JAK2 activity ([3]; cell-free kinase assay): inhibited
EC50 ([4]; Homo sapiens, U-937): 478 nM
IC50 [5]: 430 nM
JAK1 activity [5]: inhibited
maximum non-toxic concentration [6]: 50 µM
EC50 ([7]; Homo sapiens, U-937, read-out: EC50 MCP-1, U937 cells infected with H1N1): 6250 nM
EC50 ([7]; Homo sapiens, U-937, read-out: EC50 MCP-1, secondary screen, Supplemental Table 1): 30 nM
IC50 [7, 18]: 6300 nM
EC50 [8, 19]: 714 nM
p38 kinase activity in vitro [9]: failed to inhibit
IC50 [9]: > 100000 nM
EC50 [10, 20]: 215 nM
EC50 [11, 21]: 100 nM
IC50 [11, 22]: 7110 nM
EC50 ([11]; Homo sapiens, U-937; read-out: EC50 IP-10): 7690 nM
EC50 ([12]; Homo sapiens, U-937): 7140 nM
STAT1 phosphorylation levels [13]: significantly reduced
CC50 at 48 h [14]: 100000 nM
CC50 [14, 23]: 13500 nM
IC50 ([15]; Homo sapiens, U-937): 7500 nM
EC50 [15, 24]: 110 nM
EC50 ([15]; Homo sapiens, U-937): 7690 nM
EC50 [16, 21]: 57 nM

CCS(=O)(=O)N1CC(CC#N)(n2cc(-c3ncnc4[nH]ccc34)cn2)C1 [Baricitinib]
phosphorylation of p38 [2]: suppress
JAK2 activity [3]: inhibited
p38 kinase activity in vitro [9]: failed to inhibit
IC50 [9]: > 1000 nM
CC50 at 48 h [14]: 5380 nM
CC50 ([14]; CC50): > 100000 nM

Cc1nc(Nc2ncc(C(=O)Nc3c(C)cccc3Cl)s2)cc(N2CCN(CCO)CC2)n1 [Dasatinib]
EC50 ([1]; Homo sapiens, U-937): 17 nM
IC50 [2]: 1000 nM
EC50 ([4]; Homo sapiens, U-937): 18 nM
CC50 [6, 25]: > 100000 nM
maximum non-toxic concentration [6]: 1 µM
EC50 ([7]; Homo sapiens, U-937, U937 cells infected with H1N1; read-out: EC50 MCP-1): 190 nM
EC50 [7, 26]: 140 nM
IC50 ([7]; Homo sapiens, U-937; production of MCP-1 in U937 cells infected with influenza virus; Table 4; read-out: IC50 MCP-1): 190 nM
EC50 [8, 19]: 44 nM
EC50 [10, 20]: 135 nM
EC50 ([11]; Homo sapiens, U-937, U937 cells infected with H1N1; read-out: EC50 IP-10): 1160 nM
EC50 [11, 27]: 1300 nM
EC50 ([12]; Homo sapiens, U-937): 730 nM
STAT1 phosphorylation levels [13]: significantly reduced
CC50 [14]: > 100000 nM
CC50 at 48 h [14]: > 100000 nM
IC50 ([15]; Homo sapiens, U-937): 1900 nM
EC50 [15, 24]: 2060 nM
EC50 ([15]; Homo sapiens, U-937): 1890 nM
EC50 [16, 21]: 14 nM

CC[C@@](C)(Nc1ccnc(-c2c[nH]c3ncccc23)n1)C(=O)NCC(F)(F)F [Decernotinib]
IC50 [3]: 90 nM
JAK2 activity [3]: inhibited
IC50 [5]: 13 nM
JAK1 activity [5]: inhibited
EC50 [7, 19]: 50 nM
EC50 [11, 21]: 100 nM
IC50 [11, 22]: 100 nM
CC50 [14, 23]: 50000 nM
EC50 [15, 24]: 20 nM

CC(C)(C)Cn1c(N)nc2ccc(-c3[nH]c(C(C)(C)C)nc3-c3ccc(F)cc3)nc21 [LY2228820]
EC50 [7, 19]: 2230 nM
IC50 [7, 18]: 2200 nM
IC50 [9]: 60 nM
EC50 [11, 21]: 3700 nM
CC50 [14, 23]: 50000 nM
IC50 ([15]; Homo sapiens, U-937): 5 nM
EC50 [15, 24]: < 5 nM

O=C(NOC[C@H](O)CO)c1ccc(F)c(F)c1Nc1ccc(I)cc1F [PD0325901]
phosphorylation of p38 [2]: suppress
IC50 [2]: 10 nM
EC50 [7, 26]: 100 nM
IC50 ([7]; Homo sapiens, U-937; read-out: IC50 MCP-1): < 20 nM
secretion of MCP-1 ([7]; different concentrations of PD0325901, 48 h post-infection): inhibited
EC50 [11, 27]: 690 nM
secretion of IP-10 ([11]; at high concentrations, 48 h post-infection): inhibit
phosphorylation level of ERK [17]: decreased
phosphorylation of STAT1 proteins [13]: inhibit
CC50 [14]: > 100000 nM
secretion of IL-8 [15]: inhibited
IC50 ([15]; Homo sapiens, U-937): < 20 nM
EC50 [15, 24]: < 5 nM

COc1cc(Nc2ncc(F)c(Nc3ccc4c(n3)NC(=O)C(C)(C)O4)n2)cc(OC)c1OC [R406]
EC50 [1]: 5 nM
EC50 [4]: 62 nM
CC50 [6]: > 100000 nM
CC50 [6, 25]: > 100000 nM
CC50 ([6]; U937 cells, Table 1 section H3N2): > 100000 nM
CC50 [6, 28]: > 100000 nM
EC50 ([7]; U937 cells infected with H1N1; read-out: EC50 MCP-1): 240 nM
EC50 ([7]; secondary screen, Supplemental Table 1; read-out: EC50 MCP-1): 270 nM
EC50 ([8]; read-out: EC50 MCP-1): 35 nM
EC50 ([10]; read-out: EC50 IL-8): 88 nM
EC50 ([11]; U937 cells infected with H1N1; read-out: EC50 IP-10): 431 nM
EC50 ([11]; secondary screen, Supplemental Table 1; read-out: EC50 IP-10): 3500 nM
EC50 [12]: 690 nM
EC50 [15]: 130 nM
EC50 [15, 28]: 820 nM
EC50 ([16]; read-out: EC50 IP-10): 90 nM

O=C(Nc1ccc(-c2ccnc(Nc3ccc(N4CCOCC4)cc3)n2)cc1)C1CCCN1 (centres unmarked) [XL019]
EC50 [7, 19]: 940 nM
EC50 [11, 21]: 990 nM
CC50 [14, 23]: 26700 nM
EC50 [15, 24]: 510 nM
